According to publication PMC5011342, “A high throughput drug screening assay to identify compounds that promote oligodendrocyte differentiation using acutely dissociated and purified oligodendrocyte precursor cells” (BMC Research Notes, 2016):
Where two headings read alike, the source gives them in different places.

How the values were obtained:
[1] = tested on: acutely dissociated and purified rat OPCs; test: Acute OL differentiation assay (MBP expression/cell, immunofluorescent image quantification); type: cell-based
Method in brief: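 Oligodendrocyte precursor cells were enriched from P6-P7 Sprague–Dawley rat brains by immunopanning (RAN-2 and GalC depletion, O4 selection), plated at 5000 cells/well in serum-free, mitogen-free differentiation media on PDL/laminin 96-well view plates, centrifuged at 200×g, and pre-incubated 1–2 h before test compounds were added in quadruplicate. On DIV4, cells were fixed, stained for MBP and DAPI, imaged automatically, and MBP expression per cell was quantified.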

expanded OPCs = test: cells; conditions: for viability at 0.1 µM / viability at 1 µM / viability at 10 µM: Rattus norvegicus, 72 h; for 0.1 µM (% DMSO) / 1 µM (% DMSO) / 10 µM (% DMSO): alamarBlue viability of expanded OPCs, relative to DMSO control; for 0.1 µM (% DMSO): compound at 0.1 µM; for 1 µM (% DMSO): compound at 1 µM; for 10 µM (% DMSO): compound at 10 µM
Method in brief: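 Expanded OPCs seeded at 10,000 cells/well in differentiation media, then exposed to NCC library compounds at 10, 1 and 0.1 µM (quadruplicate, 0.1% DMSO) for three days. Viability read as alamarBlue fluorescence (560/590 nm) after 4 h at 37 °C; tunicamycin 5 ng/ml served as toxicity control.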

[2] = Rattus norvegicus, test compound at 2 uM, NCC library screen, sheet "All OLga data", relative to quetiapine, read-out: 2 uM (% Quet)
[3] = Rattus norvegicus, test compound at 10 uM, NCC library screen, sheet "All OLga data", relative to quetiapine, read-out: 10 uM (% Quet)
[4] = read-out: 0.1 µM (% DMSO), alamarBlue viability, NCC library compound at 0.1 µM, sheet "All Tox data"
[5] = read-out: 1 µM (% DMSO), alamarBlue viability, NCC library compound at 1 µM, sheet "All Tox data"
[6] = read-out: 10 µM (% DMSO), alamarBlue viability, NCC library compound at 10 µM, sheet "All Tox data"
[7] = Rattus norvegicus, test compound at 2 uM, MBP expression relative to quetiapine, NCC library screen, sheet "All OLga data", read-out: 2 uM (% Quet)
[8] = Rattus norvegicus, test compound at 10 uM, MBP expression relative to quetiapine, NCC library screen, sheet "All OLga data", read-out: 10 uM (% Quet)
[9] = Rattus norvegicus, 0.4 uM test compound, relative to quetiapine, sheet "All OLga data", read-out: OL differentiation, 0.4 uM (% Quet)
[10] = Rattus norvegicus, 2 uM test compound, relative to quetiapine, sheet "All OLga data", read-out: OL differentiation, 2 uM (% Quet)
[11] = read-out: 0.1 µM (% DMSO), alamarBlue viability of expanded OPCs, compound at 0.1 µM, sheet All Tox data
[12] = read-out: 1 µM (% DMSO), alamarBlue viability of expanded OPCs, compound at 1 µM, sheet All Tox data
[13] = read-out: 10 µM (% DMSO), alamarBlue viability of expanded OPCs, compound at 10 µM, sheet All Tox data
[14] = Rattus norvegicus, 10 uM test compound, relative to quetiapine, sheet "All OLga data", read-out: OL differentiation, 10 uM (% Quet)
[15] = Rattus norvegicus, test compound at 0.4 uM, NCC library screen, sheet "All OLga data", relative to quetiapine, read-out: 0.4 uM (% Quet)
[16] = Rattus norvegicus, 0.08 uM test compound, relative to quetiapine, sheet "All OLga data", read-out: OL differentiation, 0.08 uM (% Quet)

Row | Compound | activation at 2 µM [1, 2] [%] | activation at 10 µM [1, 3] [%] | viability at 0.1 µM (expanded OPCs; [4]) [%] | viability at 1 µM (expanded OPCs; [5]) [%] | viability at 10 µM (expanded OPCs; [6]) [%] | activation at 2 µM [1, 10] [%] | viability at 0.1 µM (expanded OPCs; [11]) [%] | viability at 1 µM (expanded OPCs; [12]) [%] | viability at 10 µM (expanded OPCs; [13]) [%] | also measured
1 | C=CCN1CC[C@]23c4c5ccc(O)c4O[C@H]2C(=O)CC[C@@]3(O)[C@H]1C5 [Naloxone] | -2.8 | -10.8 | 94.2 | 90.1 | 85.6 |  |  |  |  | 
2 | O=C1CC[C@@]2(O)[C@H]3Cc4ccc(O)c5c4[C@@]2(CCN3CC2CC2)[C@H]1O5 [Naltrexone] |  |  |  |  |  |  |  |  |  | activation at 2 µM [1, 7]: 12.8%; activation at 10 µM [1, 8]: -5.6%; 0.1 µM (% DMSO) (expanded OPCs): 99.5 % DMSO; 1 µM (% DMSO) (expanded OPCs): 101.6 % DMSO; 10 µM (% DMSO) (expanded OPCs): 97.3 % DMSO
3 | Oc1ccc2c3c1O[C@H]1c4[nH]c5ccccc5c4C[C@@]4(O)[C@@H](C2)N(CC2CC2)CC[C@]314 [Naltrindole] |  |  |  |  |  | -35.8 | 80.6 | 66.7 | 17.9 | activation at 0.4 µM [1, 9]: -9.9%
4 | C[C@]12CC[C@H]3[C@@H](CCC4=CC(=O)CC[C@@H]43)[C@@H]1CC[C@@H]2O [Nandrolone] |  |  |  |  |  | -5.9 | 94.4 | 98.5 | 96.2 | activation at 10 µM [1, 14]: -26.5%
5 | c1ccc2c(CC3=NCCN3)cccc2c1 [Naphazoline] | -4.8 | -45.4 |  |  |  |  |  |  |  | 0.1 µM (% DMSO) (expanded OPCs): 92.9 % DMSO; 1 µM (% DMSO) (expanded OPCs): 92.8 % DMSO; 10 µM (% DMSO) (expanded OPCs): 78.6 % DMSO
6 | COc1ccc2cc([C@H](C)C(=O)O)ccc2c1 [Naproxen] | 1 | -0.6 | 91.1 | 95.1 | 94 |  |  |  |  | 
7 | CC(C)[C@H]1CC[C@H](C(=O)N[C@H](Cc2ccccc2)C(=O)O)CC1 [Nateglinide] |  |  |  |  |  | -26.4 | 93.4 | 92.4 | 99.5 | activation at 10 µM [1, 14]: -12.7%
8 | CCc1nn(CCCN2CCN(c3cccc(Cl)c3)CC2)c(=O)n1CCOc1ccccc1 [Nefazodone] |  |  |  |  |  | 0.4 | 99.6 | 111 | 42.8 | activation at 0.4 µM [1, 9]: -5.2%
9 | Cc1c(O)cccc1C(=O)N[C@@H](CSc1ccccc1)[C@H](O)CN1C[C@H]2CCCC[C@H]2C[C@H]1C(=O)NC(C)(C)C [Nelfinavir] |  |  |  |  |  | -84.5 | 100 | 59 | 11.3 | activation at 0.4 µM [1, 9]: -21.8%
10 | Cc1ccnc2c1NC(=O)c1cccnc1N2C1CC1 [Nevirapine] |  |  |  |  |  | 0.24 | 93.7 | 90.2 | 93.3 | activation at 10 µM [1, 14]: 15.9%
11 | O=C(O)c1cccnc1 [Niacin] | -3.6 | 3.6 |  |  |  |  |  |  |  | 0.1 µM (% DMSO) (expanded OPCs): 92.4 % DMSO; 1 µM (% DMSO) (expanded OPCs): 94.0 % DMSO; 10 µM (% DMSO) (expanded OPCs): 85.5 % DMSO
12 | NC(=O)c1cccnc1 [Niacinamide] | -37.7 | -38.5 | 90.4 | 91 | 80.9 |  |  |  |  | 
13 | O=C(CCNNC(=O)c1ccncc1)NCc1ccccc1 [Nialamide] | 2.8 | 14.8 | 95 | 96.2 | 91.7 |  |  |  |  | 
14 | COC(=O)C1=C(C)NC(C)=C(C(=O)OCCN(C)Cc2ccccc2)C1c1cccc([N+](=O)[O-])c1 (stereo not drawn) [Nicardipine] |  |  | 85.3 | 51.8 | 14.3 |  |  |  |  | activation at 0.08 µM ([1]; Rattus norvegicus, test compound at 0.08 uM, NCC library screen, sheet "All OLga data", relative to quetiapine, read-out: 0.08 uM (% Quet)): 8.8%; activation at 0.4 µM [1, 15]: -29%
15 | O=C(NCCO[N+](=O)[O-])c1cccnc1 [Nicorandil] | 14.7 | 3.2 | 92.6 | 85.6 | 82.2 |  |  |  |  | 
16 | CN1CCC[C@H]1c1cccnc1 [Nicotine] |  |  |  |  |  |  |  |  |  | activation at 2 µM ([1]; Rattus norvegicus, read-out: 2 uM (% Quet)): 12.3%; activation at 10 µM ([1]; Rattus norvegicus, read-out: 10 uM (% Quet)): 10.9%; viability at 0.1 µM (expanded OPCs; read-out: 0.1 µM (% DMSO)): 92.9%; viability at 1 µM (expanded OPCs; read-out: 1 µM (% DMSO)): 89.4%; viability at 10 µM (expanded OPCs; read-out: 10 µM (% DMSO)): 93.5%
17 | OCc1cccnc1 [Nicotinyl Alcohol] | -9.3 | -3.3 | 88.5 | 90.1 | 89.3 |  |  |  |  | 
18 | Cn1c(NCCN(CCO)CCCc2ccc([N+](=O)[O-])cc2)cc(=O)n(C)c1=O [Nifekalant] |  |  |  |  |  | -9.4 | 94.4 | 97.6 | 109 | activation at 10 µM [1, 14]: 6%
19 | CN1C(=O)CN=C(c2ccccc2)c2cc([N+](=O)[O-])ccc21 [Nimetazepam] |  |  | 89.5 | 82.8 | 81.8 | 6.5 |  |  |  | activation at 10 µM [1, 14]: -0.15%
20 | COCCOC(=O)C1=C(C)NC(C)=C(C(=O)OC(C)C)C1c1cccc([N+](=O)[O-])c1 (stereo not drawn) [Nimodipine] | 4.8 |  | 88 | 87.4 | 54.5 |  |  |  |  | activation at 0.4 µM [1, 15]: -13.1%
21 | COC(=O)C1=C(C)NC(C)=C(C(=O)OCC(C)C)C1c1ccccc1[N+](=O)[O-] (stereo not drawn) [Nisoldipine] |  |  |  |  |  |  | 94.2 | 11.9 | 11.4 | activation at 0.08 µM [1, 16]: -23.7%; activation at 0.4 µM [1, 9]: -133%
22 | CN(C)CCCC1(c2ccc(F)cc2)OCc2cc(C#N)ccc21 (stereo not drawn) [Nitalapram, reference compound] | 37.5 | 38.6 | 95.9 | 94.9 | 91.9 | 33 | 85.9 | 101 | 110 | activation at 10 µM [1, 14]: 46.5%; activation at 2 µM [1, 7]: 30.4%; activation at 10 µM [1, 8]: 6.5%; EC50 ([1]; Rattus norvegicus, average EC50 for induction of OL differentiation from independent biological replicates, eight concentrations): 1100 nM; hit in OL differentiation assay, MRF-TMC ([1]; ● = confirmed hit in this paper's assay): ●; 0.1 µM (% DMSO) (expanded OPCs): 107.3 % DMSO; 1 µM (% DMSO) (expanded OPCs): 108.9 % DMSO; 10 µM (% DMSO) (expanded OPCs): 99.4 % DMSO
23 | CC(=O)Oc1ccccc1C(=O)Nc1ncc([N+](=O)[O-])s1 [Nitazoxanide] |  |  | 91 | 96.5 | 55.7 | -75.9 |  |  |  | 
24 | O=C1CN=C(c2ccccc2)c2cc([N+](=O)[O-])ccc2N1 [Nitrazepam] |  |  |  |  |  | 7.3 | 84.2 | 88.9 | 95 | activation at 10 µM [1, 14]: -25.3%
25 | CCOC(=O)C1=C(C)NC(C)=C(C(=O)OC)C1c1cccc([N+](=O)[O-])c1 (stereo not drawn) [Nitrendipine] |  |  |  |  |  | -27 | 104 | 90.7 | 35.6 | activation at 0.4 µM [1, 9]: -4.7%
26 | O=C1CN(/N=C/c2ccc([N+](=O)[O-])o2)C(=O)N1 [Nitrofurantoin] | -26.2 | -72.2 |  |  |  |  |  |  |  | 0.1 µM (% DMSO) (expanded OPCs): 101.2 % DMSO; 1 µM (% DMSO) (expanded OPCs): 101.9 % DMSO; 10 µM (% DMSO) (expanded OPCs): 87.2 % DMSO
27 | CNC(=C[N+](=O)[O-])NCCSCc1csc(CN(C)C)n1 [Nizatidine] |  |  |  |  |  | -1.7 | 92.6 | 89 | 96.6 | activation at 10 µM [1, 14]: 13%
28 | COc1ccc(-c2cc(=O)c3c(OC)c(OC)c(OC)c(OC)c3o2)cc1OC [Nobiletin] |  |  |  |  |  |  | 76.3 | 28.1 | 28.1 | activation at 0.08 µM [1, 16]: 8.4%; activation at 0.4 µM [1, 9]: -28.4%
29 | NC[C@H](O)c1ccc(O)c(O)c1 [Norepinephrine] |  |  |  |  |  |  |  |  |  | activation at 2 µM [1, 7]: -1.9%; activation at 10 µM [1, 8]: -78%; 0.1 µM (% DMSO) (expanded OPCs): 99.4 % DMSO; 1 µM (% DMSO) (expanded OPCs): 99.0 % DMSO; 10 µM (% DMSO) (expanded OPCs): 68.5 % DMSO
